The values below come from patent US8986961B2, “Fermentative production of acetone from renewable resources by means of novel metabolic pathway” (Evonik Degussa GmbH, priority 2007, dated 2015).

Data set [1] deals with acyl-CoA synthetase/acyl-CoA thiokinase (with AMP formation; EC 6.2.1.2). Conditions: purified enzyme, Shimizu et al. 1981; read-out: Km for substrate; cited from earlier work.
Data set [2] deals with T1, Acetoacetyl-CoA synthetase (AACS) (Rhizobium meliloti, UniProt Q9Z3R3).
T1 sequence (Q9Z3R3 1-650): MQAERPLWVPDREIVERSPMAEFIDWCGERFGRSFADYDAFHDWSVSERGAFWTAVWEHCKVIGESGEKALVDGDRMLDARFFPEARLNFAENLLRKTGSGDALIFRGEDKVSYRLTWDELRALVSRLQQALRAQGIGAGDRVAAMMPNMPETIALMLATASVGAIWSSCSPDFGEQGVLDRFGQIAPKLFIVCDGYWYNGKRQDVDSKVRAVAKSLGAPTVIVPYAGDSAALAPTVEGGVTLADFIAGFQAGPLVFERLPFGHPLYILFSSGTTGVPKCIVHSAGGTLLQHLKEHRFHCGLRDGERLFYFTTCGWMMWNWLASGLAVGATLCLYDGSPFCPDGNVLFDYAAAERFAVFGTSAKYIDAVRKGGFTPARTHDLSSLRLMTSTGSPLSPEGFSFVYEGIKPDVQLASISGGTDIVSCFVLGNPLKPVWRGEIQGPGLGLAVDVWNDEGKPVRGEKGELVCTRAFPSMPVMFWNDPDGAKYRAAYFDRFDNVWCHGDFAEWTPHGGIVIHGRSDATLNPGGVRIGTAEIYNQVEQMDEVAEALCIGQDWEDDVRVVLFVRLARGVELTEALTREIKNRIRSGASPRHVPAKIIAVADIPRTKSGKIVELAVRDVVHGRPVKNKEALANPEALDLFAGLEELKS
Conditions: purified AACS, DTNB assay.

Data set [3] has as its target T2, Thioesterase II (TEIIsrf) (Bacillus subtilis, UniProt Q08788).
T2 sequence (Q08788 with tags, fused parts or gaps): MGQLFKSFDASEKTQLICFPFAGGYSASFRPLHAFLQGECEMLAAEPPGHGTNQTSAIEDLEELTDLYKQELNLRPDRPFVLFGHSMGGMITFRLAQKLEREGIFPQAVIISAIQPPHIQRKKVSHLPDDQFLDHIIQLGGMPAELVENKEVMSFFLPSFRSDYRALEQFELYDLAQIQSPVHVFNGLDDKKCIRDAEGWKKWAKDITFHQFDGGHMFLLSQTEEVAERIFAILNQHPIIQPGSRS
Conditions: read-out: Km of TEIIsrf for substrate; purified His-tagged TEIIsrf, DTNB assay 412 nm, Lineweaver-Burk.

Data set [4] has as its target YbgC acyl-CoA thioesterase (EC 3.1.2.18) (Haemophilus influenzae, UniProt P44679). Conditions: Zhuang et al. 2002; read-out: Km of YbgC for substrate; cited from earlier work.
In data set [5] the test system is CC(=O)CC(=O)SCCNC(=O)CCNC(=O)[C@H](O)C(C)(C)COP(=O)(O)OP(=O)(O)OC[C@H]1O[C@@H](n2cnc3c(N)ncnc32)[C@H](O)[C@@H]1OP(=O)(O)O. The data set can be described thus: purified protein, by the assay type. Conditions: other: YbgC elution fractions (IMPACT system), DTNB assay; measurements varied.
Data set [6] relates to CC(=O)SCCNC(=O)CCNC(=O)[C@H](O)C(C)(C)COP(=O)(O)OP(=O)(O)OC[C@H]1O[C@@H](n2cnc3c(N)ncnc32)[C@H](O)[C@@H]1OP(=O)(O)O. The data set can be described thus: purified protein, by the assay type. The following applies: other: YbgC elution fractions (IMPACT system), DTNB assay; measurements varied.
The subject of the next data set is E. coli HB101. Nature of the data set: Acetone formation in E. coli HB101, 5 ml cultures. The data set is classed as cell-based, Escherichia coli. The following applies: HB101, LBAmp, 5 ml culture, 37° C., glucose 20 g/l, cell-free supernatant, gas chromatography. Here is the method:
All the resulting plasmid variants (see Table 1) were investigated for acetone formation in the E. coli cloning strain HB101. The analyses took place on the 5 ml scale in LB medium with ampicillin (100 μg/ml) after inoculation from appropriate precultures and after incubation at 37° C. and 200 rpm. The optical density (600 nm) was followed by photometry and, at a value of about 0.5-0.6, expression of the cloned genes was induced by adding 1 mM IPTG (isopropyl β-D-thiogalactopyrano-side) and, after 3-4 h, glucose (20 g/l) was added. No induction took place with the variants under the control of the thiolase promoter because it was assumed that constitutive expression takes place. Samples were taken at particular times over a period of about 48 h, and the concentration of acetone and acetate in the cell-free medium supernatant was determined by gas chromatography. Additional glucose doses optionally took place in varying amounts (in the range 10-40 g/l) either 4 h after induction or else simultaneously with the induction.

Substrate in data set [7]: CC(=O)SCCNC(=O)CCNC(=O)[C@H](O)C(C)(C)COP(=O)(O)OP(=O)(O)OC[C@H]1O[C@@H](n2cnc3c(N)ncnc32)[C@H](O)[C@@H]1OP(=O)(O)O
Nature of the data set: purified protein, by the assay type. The following applies: other: purified His-tagged AACS (peak 2), DTNB assay.

Substrate in data set [8]: CC(=O)CC(=O)SCCNC(=O)CCNC(=O)[C@H](O)C(C)(C)COP(=O)(O)OP(=O)(O)OC[C@H]1O[C@@H](n2cnc3c(N)ncnc32)[C@H](O)[C@@H]1OP(=O)(O)O
The data set can be described thus: purified protein, by the assay type. The following applies: other: purified His-tagged TEIIsrf, DTNB assay 412 nm, Lineweaver-Burk.

Where “and” joins values, the source holds several entries; their conditions need not be identical. Identical values can stand only once.

Chain of YbgC acyl-CoA thioesterase (EC 3.1.2.18) (P44679 whole entry): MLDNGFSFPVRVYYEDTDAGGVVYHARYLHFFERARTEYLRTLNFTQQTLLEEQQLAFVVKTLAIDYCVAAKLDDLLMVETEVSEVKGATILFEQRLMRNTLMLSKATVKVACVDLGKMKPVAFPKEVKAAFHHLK

In the case of `CCC(=O)C(=O)O` [2-ketobutyrate], the Km – broadly, the substrate concentration at which the rate is half of its maximum – in data set [1] was 25 µM.
With `CC(=O)CC(=O)SCCNC(=O)CCNC(=O)[C@H](O)C(C)(C)COP(=O)(O)OP(=O)(O)OC[C@H]1O[C@@H](n2cnc3c(N)ncnc32)[C@H](O)[C@@H]1OP(=O)(O)O` [acetoacetyl-CoA], in [2], the “specific activity of the enzyme with substrate” value was found to be 0.0038 µmol/min/mg.
As to `CC(=O)SCCNC(=O)CCNC(=O)[C@H](O)C(C)(C)COP(=O)(O)OP(=O)(O)OC[C@H]1O[C@@H](n2cnc3c(N)ncnc32)[C@H](O)[C@@H]1OP(=O)(O)O` [acetyl-CoA], the Km in data set [3] is 200 µM.
On to `CCCC(=O)SCCNC(=O)CCNC(=O)[C@H](O)C(C)(C)COP(=O)(O)OP(=O)(O)OC[C@H]1O[C@@H](n2cnc3c(N)ncnc32)[C@H](O)[C@@H]1OP(=O)(O)O` [butyryl-CoA], for which the Km in data set [4] is 24000 µM; in data set [1], 10 µM.
As for “Acyl-CoA thioesterase YbgC (Haemophilus influenzae Rd KW20)”, the Km in data set [5] was 140 µM; in data set [6], 530 µM.
As for “pUC18att: plasmid SEQ ID No. 10; teIIsrf, adc, thlA in pUC18 under thl promoter”, the Max. acetone concentration in the data set with E. coli HB101 was 35 mM and 2.0 g/l.
Take β-hydroxybutyrate-CoA: the Michaelis-Menten constant (Km) in [4] is 20000 µM; in [1], 25 µM.

B1: Acetoacetyl-CoA synthetase (AACS) (Sinorhizobium meliloti 1021) (protein)
chain: T1 sequence (Q9Z3R3 1-650)
In the case of B1, the Km in data set [7] came to 700 µM.

B2: Thioesterase II (TEIIsrf) (Bacillus subtilis subsp. subtilis str. 168) (protein)
chain: T2 sequence (Q08788 with tags, fused parts or gaps)
B2: in data set [8], the Km is 770 µM.
